No end group written: not given here.

The record followed here is patent publication US20250281572A1, “COMPOSITIONS AND METHODS FOR TREATING AND PREVENTING METABOLIC DISORDERS” (The Johns Hopkins University, priority 2022, published 2025).

The subject of data set [1] is AMPKα1. The data set is described as follows: AMPK phosphorylation in cAMP-treated Hepa1-6 cells. The class given is cell-based. The conditions noted are these: Hepa1-6 cells with cAMP (0.2 mM).
The target of data set [2] is AMPKα1 (AMP-activated protein kinase catalytic subunit alpha 1), FLAG-tagged, wild type (UniProt Q13131).
Target sequence in this assay (Q13131 whole entry, looked up, tested part not stated): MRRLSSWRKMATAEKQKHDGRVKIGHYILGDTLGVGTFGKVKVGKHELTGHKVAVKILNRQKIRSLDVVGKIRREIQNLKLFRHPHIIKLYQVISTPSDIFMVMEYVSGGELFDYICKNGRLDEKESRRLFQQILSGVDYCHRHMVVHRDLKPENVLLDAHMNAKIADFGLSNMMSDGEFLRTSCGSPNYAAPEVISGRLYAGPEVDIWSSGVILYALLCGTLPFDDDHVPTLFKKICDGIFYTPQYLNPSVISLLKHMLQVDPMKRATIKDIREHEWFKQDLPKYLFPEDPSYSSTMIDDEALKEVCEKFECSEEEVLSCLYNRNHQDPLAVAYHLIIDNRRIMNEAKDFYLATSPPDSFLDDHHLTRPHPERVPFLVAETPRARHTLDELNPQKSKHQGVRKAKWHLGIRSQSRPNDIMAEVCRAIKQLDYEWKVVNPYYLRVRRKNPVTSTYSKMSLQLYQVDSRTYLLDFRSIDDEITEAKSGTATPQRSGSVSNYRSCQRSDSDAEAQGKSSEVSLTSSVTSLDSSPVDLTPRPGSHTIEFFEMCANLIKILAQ
Data set [3] deals with T1, peptide a1m (TPQRSGSISNYRSCQR).
T1 sequence: TPQRSGSISNYRSCQR

Data set [4] has as its target AMPKα1 (AMP-activated protein kinase catalytic subunit alpha 1), FLAG-tagged, wild type (UniProt Q13131). Description: cell-based or functional assay.
Target sequence in this assay (Q13131 whole entry): as the sequence (Q13131 whole entry, looked up, tested part not stated) above
The target of data set [5] is AMPKα1 phosphorylated at S496 (UniProt Q13131).
In data set [6] the target is AMPKα2 phosphorylated at S491 (UniProt P54646).
Data set [7] deals with AMPKα2 (AMP-activated protein kinase catalytic subunit alpha 2) (UniProt P54646).
The subject of data set [8] is AMPKα1. The data set is described as follows: In vitro phosphorylation assay of AMPKα1 at S496 by PKA or AKT. Format: biochemical. The conditions noted are these: in vitro assays. As to the method:
(§1) In vitro phosphorylation assays. Purified AMPKα1 protein was incubated with 1 μg of PKA catalytic subunit (Millipore) or 0.54 ug of AKT1 (abcam), 1× kinase buffer (Cell signaling) and 0.2 mM ATP at room temperature for the indicated time. To test the phosphorylation of PKA-mediated AMPK phosphorylation at S496/491 on a subunit phosphorylation at T172, AMPKα subunits were phosphorylated at S496/491 by PKA at 37° C. for 1 h, followed by the addition of 25 ng LKB1-STRAD-MO25 (Millipore), then incubated at room temperature for 30 min.

For data set [9], the system named is AMPKα2. The data set is described as follows: In vitro phosphorylation assay of AMPKα2 at S491 by PKA. Format: biochemical. As to the method: as §1
Data set [10] in a line: Viable MCF-7 breast cancer cells. Format: cell-based. Conditions: 500 μM; read-out: reduction of viable MCF-7 cancer cells.
In data set [11] the test system is human colon cancer Caco2 cells. Description: Growth of colon cancer Caco2 cells. Format: cell-based. The conditions noted are these: FIG. 25b.
Data set [12] deals with primary hepatocytes. Conditions: 10 μM, 16 h, versus control peptide TAT. As to the method:
Primary hepatocytes prepared from elderly mice (78 weeks of age) were treated with 10 μM of control peptide TAT or Pa496m for 16 h.

Data set [13] has as its system HFD-fed mice. The data set is described as follows: Intraperitoneal treatment of HFD-fed mice. The class given is in vivo, mouse. The conditions noted are these: intraperitoneal 10 nMole/g/day for 5 days, then 15 nMole/g/day for another 5 days.
Data set [14] relates to human primary hepatocytes.

Chain of AMPKβ1, FLAG-tagged (Q9R078 2-270): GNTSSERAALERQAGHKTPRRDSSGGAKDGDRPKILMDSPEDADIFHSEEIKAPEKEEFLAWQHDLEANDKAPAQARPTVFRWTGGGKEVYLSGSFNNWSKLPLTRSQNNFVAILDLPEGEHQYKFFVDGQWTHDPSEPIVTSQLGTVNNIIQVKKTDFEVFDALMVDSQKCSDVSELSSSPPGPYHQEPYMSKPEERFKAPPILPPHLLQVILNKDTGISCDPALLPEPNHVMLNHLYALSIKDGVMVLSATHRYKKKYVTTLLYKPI
Chain of AMPKγ1, FLAG-tagged (O54950 whole entry): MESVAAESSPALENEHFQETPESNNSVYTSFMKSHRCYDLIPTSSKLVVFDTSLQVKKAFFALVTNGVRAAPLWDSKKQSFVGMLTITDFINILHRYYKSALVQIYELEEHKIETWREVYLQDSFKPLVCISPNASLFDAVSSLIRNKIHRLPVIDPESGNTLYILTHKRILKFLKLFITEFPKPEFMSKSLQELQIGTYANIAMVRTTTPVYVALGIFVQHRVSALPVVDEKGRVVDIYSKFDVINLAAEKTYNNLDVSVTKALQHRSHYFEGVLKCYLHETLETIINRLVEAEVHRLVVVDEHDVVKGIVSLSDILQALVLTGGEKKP
Chain of AMPKα2 phosphorylated at S491 (P54646 whole entry, looked up): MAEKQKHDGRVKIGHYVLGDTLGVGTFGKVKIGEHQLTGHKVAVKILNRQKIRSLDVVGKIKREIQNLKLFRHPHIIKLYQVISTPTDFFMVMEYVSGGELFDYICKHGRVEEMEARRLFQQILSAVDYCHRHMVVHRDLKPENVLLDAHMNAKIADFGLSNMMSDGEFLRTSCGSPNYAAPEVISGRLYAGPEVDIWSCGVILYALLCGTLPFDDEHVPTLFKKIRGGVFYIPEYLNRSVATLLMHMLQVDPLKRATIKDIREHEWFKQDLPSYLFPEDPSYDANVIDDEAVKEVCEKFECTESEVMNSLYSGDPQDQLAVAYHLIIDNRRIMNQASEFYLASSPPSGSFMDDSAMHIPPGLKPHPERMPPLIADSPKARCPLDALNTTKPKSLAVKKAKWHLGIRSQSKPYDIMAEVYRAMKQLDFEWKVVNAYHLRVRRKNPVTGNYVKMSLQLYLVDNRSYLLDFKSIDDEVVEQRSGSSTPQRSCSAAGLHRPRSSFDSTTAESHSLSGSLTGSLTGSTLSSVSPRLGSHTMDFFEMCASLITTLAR
Chain of AMPKα2 (AMP-activated protein kinase catalytic subunit alpha 2) (P54646 whole entry, looked up, tested part not stated): as the sequence (P54646 whole entry, looked up) above
Chain of AMPKα1 phosphorylated at S496 (Q13131 whole entry, looked up): as the sequence (Q13131 whole entry, looked up, tested part not stated) above

In the case of `O=S(=O)(NCCNC/C=C/c1ccc(Br)cc1)c1cccc2cnccc12` [Peptide H89], the “phosphorylation of AMPKαT172 and MFF” value in [1] is recorded as “reversed the negative effect of cAMP”.
As for AKT1 (abcam), the “in vitro phosphorylation of AMPKα1 at S496” value in [2] is on record as “PKA- or AKT-mediated phosphorylation of AMPKα1 at S496 in in vitro assays”. For the same compound, the “in vitro phosphorylation of AMPKα1 at S496 by AKT” value in data set [3] is listed as “this peptide could effectively antagonize PKA- or AKT-mediated phosphorylation of AMPKα1 at S496 in in vitro assays”.
AMPKβ1, FLAG-tagged: the AMPK enzymatic activity (% of enzymatic activity lost) in data set [4] came to 80.
Consider AMPKγ1, FLAG-tagged, for which the AMPK enzymatic activity (% of enzymatic activity lost) in [4] stood at 80.
For LKB1-STRAD-MO25 (Millipore), the “in vitro phosphorylation of AMPKα at T172” value in data set [5] and in [6] was “the phosphorylation at these sites decreased the phosphorylation of AMPKα at T172 by upstream kinase LKB1” in each case.
In the case of PKA catalytic subunit (Millipore), the “in vitro phosphorylation of AMPKα1 at S496” value in data set [2] is listed as “PKA can directly phosphorylate AMPKα1 at S496”. The “in vitro phosphorylation of AMPKα2 at S491” value in [7] was “PKA can directly phosphorylate AMPKα1 at S496 (FIGS. 3a, b) and AMPKα2 at S491 (FIG. 3c)”. In [3], the “in vitro phosphorylation of AMPKα1 at S496 by PKA” value is recorded as “this peptide could effectively antagonize PKA- or AKT-mediated phosphorylation of AMPKα1 at S496 in in vitro assays” and the “in vitro phosphorylation of AMPKα2 at S491 by PKA” value is listed as “this targeting-peptide a1m could antagonize the phosphorylation of AMPKα2 at S491 by PKA as well”.
Take “TPQRSGSISNYRSCQR [a1m, corresponds to mouse AMPKα1 from 490-505 a.a]”: the “PKA- or AKT-mediated phosphorylation of AMPKα1 at S496” value in data set [8] is on record as “effectively antagonize”. Also, the “phosphorylation of AMPKα2 at S491 by PKA” value in data set [9] is listed as “could antagonize”.
Take YGRKKRRQRRRTPQRSCSAAGLHR [Pa2-491]: the cytotoxicity in data set [10] was above 90%. In addition, the “growth of colon carcinoma Caco2 cells” value in data set [11] is “could inhibit”.
As to YGRKKRRQRRRTPQRSGSISNYRSCQR [Pa496m], the cytotoxicity in [10] was above 90%. The “fat content in hepatocytes” value in [12] is listed as “significantly decreased”.
In the case of YGRKKRRQRRRTPQRSGSVSNYRSCQR [Pa496h], in data set [13], the “injury to the liver” value was “without causing injury to the liver”. Further, in data set [10], the cytotoxicity was above 90%. Besides, in [11], the “growth of colon carcinoma Caco2 cells” value was “could inhibit”. For the same compound, the “decrease of hepatocytes' viability” value in data set [14] was found to be 19.8%. The “viability of human primary hepatocytes” value in data set [14] (100 μM) is “did not significantly affected”.
